The values below come from the Kinase Knowledgebase extract (Sharma et al. 2016).

Where only a bound is given, the exact number is not on record here.

The target in the test is MAPK14;MAPK11;MAPK12 (human) (UniProt Q16539). The test can be described thus: Inhibition of p38 Kinase Activity.
What is called IC50 is the midpoint of a concentration-inhibition curve. Lower therefore signals greater potency. In the case of `CC(CCCCCCNc1nc(NCC(C)c2ccccc2)nc(Nc2ccc3ncoc3c2)n1)C(N)=O` (centres undefined), the IC50 was under 10000 nM.

Regarding `CC(CNc1nc(Nc2ccc3ncsc3c2)nc(N(C)CCCN(C)C(=O)c2cccnc2)n1)c1ccccc1` (centres undefined), the IC50 was under 10000 nM.

For `CC1(C)C2CCC(CNc3nc(Nc4ccc5ncsc5c4)nc(N4CCN(C(=O)CCC(=O)O)CC4)n3)C1C2` (centres undefined), the IC50 was under 10000 nM.

Consider `Cc1ccc(C(N)=O)cc1Nc1nc(NC2CCN(Cc3ccccc3)C2)nc(N[C@H]2CCNC2)n1` (some centres undefined), for which the IC50 is under 1000 nM.

Take `CNC1CCN(c2cc(NCCOC(C)C)nc(-n3cnc4cc(C)ccc43)n2)C1` (centres undefined): the IC50 was under 10000 nM.

Regarding `CC1(C)C2CCC(CNc3cc(Nc4ccc5ncsc5c4)nc(N4CCNCC4)n3)C1C2` (centres undefined), the IC50 was under 10000 nM.

`CC(CNc1cc(N2CCOCC2)nc(Nc2ccc3ncccc3c2)n1)c1ccccc1` (centres undefined): the IC50 was under 10000 nM.

Regarding `CC(CNc1nc(Nc2ccc3ncsc3c2)nc(N2CC3CC2CN3C(=N)N)n1)c1ccccc1` (centres undefined), the IC50 is under 10000 nM.

`Cc1cccc(CN2CC[C@H](Nc3nc(Nc4cc(C(N)=O)ccc4C)nc(N(C)CC(C)C)n3)C2)n1` showed an IC50 of under 1000 nM.

Molecule `Cc1ccc(C(N)=O)cc1Nc1nc(NC[C@H]2CCCN2)nc(N(C)CC2CCCC2)n1` came in with an IC50 of under 1000 nM.

For `CONC(=O)c1ccc(C)c(Nc2nc(N(C)CC(C)(C)C)nc(-n3ccnc3)n2)c1`, the IC50 is under 1000 nM.

`Cc1ccc(C(N)=O)cc1Nc1nc(N[C@H]2CCN(C(C)(C)C)C2)nc(N(C)CC(C)(C)C)n1` showed an IC50 of under 1000 nM.

Consider `CC1(C)[C@H]2CCC(CNc3nc(Cl)nc(Nc4ccc(S(=O)(=O)Nc5ncccn5)cc4)n3)[C@@H]1C2` (some centres undefined), for which the IC50 was under 10000 nM.

For the molecule `Cc1ccc(C(N)=O)cc1Nc1nc(NC2CCN(C(C)(C)C)C2)nc(N(C)CC(C)C)n1` (centres undefined), the IC50 is under 1000 nM.

With `CC(CN(C)c1nc(Nc2ccc3ncsc3c2)nc(N(C)C)n1)c1ccccc1` (centres undefined), the IC50 is under 10000 nM.

The molecule `CCONC(=O)c1ccc(C)c(Nc2nc(NCCO)nc(N(C)CC(C)(C)C)n2)c1` had an IC50 of under 1000 nM.

`CC(C)C(=O)N(C)CCCN(C)c1nc(NCC(C)c2ccccc2)nc(Nc2ccc3ncsc3c2)n1` (centres undefined): the IC50 was under 10000 nM.

Regarding `CC(CNc1nc(Nc2ccc3ncsc3c2)nc(N2CCCCC2)n1)c1ccccc1` (centres undefined), the IC50 is under 10000 nM.

In turn, `Nc1nc(NCCc2ccccc2)nc(Nc2ccc(S(=O)(=O)Nc3ncccn3)cc2)n1` gave an IC50 of under 10000 nM.

As to `CC(C)OCCNc1cc(N(C)C)nc(-n2cnc3ccccc32)n1`, the IC50 is under 10000 nM.

The molecule `Cc1ccc(C(N)=O)cc1Nc1nc(N[C@H]2CCN(C(C)c3ccccn3)C2)nc(N(C)CC(C)C)n1` (some centres undefined) displayed an IC50 of under 1000 nM.

Molecule `Cc1ccc(C(N)=O)cc1Nc1nc(N[C@H]2CCN(Cc3cccnc3)C2)nc(N(C)CC(C)C)n1` yielded an IC50 of under 1000 nM.

In turn, `CCNC(=O)c1ccc(C)c(Nc2nc(NCC(C)(C)C)nc(N[C@H]3CCNC3)n2)c1` displayed an IC50 of under 1000 nM.

In the case of `CCCc1ccc(C(N)=O)cc1Nc1nc(N[C@H]2CCNC2)nc(N(C)CC(C)(C)C)n1`, the IC50 is under 1000 nM.

As to `CCC(C)N1CC[C@@H](Nc2nc(Nc3cc(C(N)=O)ccc3C)nc(N(C)CC(C)C)n2)C1` (some centres undefined), the IC50 is under 1000 nM.

Consider `CCOCNc1nc(NCC(C)c2ccccc2)nc(Nc2ccc3ncsc3c2)n1` (centres undefined), for which the IC50 was under 10000 nM.

Regarding `CONC(=O)c1ccc(C)c(Nc2nc(N[C@@H]3CCNC3)nc(N(C)CC(C)C(F)(F)F)n2)c1` (some centres undefined), the IC50 is under 1000 nM.

In turn, `Cc1ccc(C(N)=O)cc1Nc1nc(NCC(C)c2ccccc2)nc(N[C@@H]2CCNC2)n1` (some centres undefined) registered an IC50 of under 1000 nM.

`CN(CC1CCC2CC1C2(C)C)c1nc(Nc2ccc3ncsc3c2)nc(N2CCNCC2)n1` (centres undefined): the IC50 is under 10000 nM.

For the molecule `Cc1ccc(-c2nc3ccccc3[nH]2)cc1Nc1nc(N[C@@H]2CCNC2)nc(N(C)CC(C)(C)C)n1`, the IC50 was under 1000 nM.

As to `Cc1ccc(C(N)=O)cc1Nc1nc(NC2CCCCNC2)nc(N(C)CC(C)(C)C)n1` (centres undefined), the IC50 was under 1000 nM.

As to `Cc1ccc(C(=O)NC#N)cc1Nc1nc(N[C@H]2CCNC2)nc(N(C)CC(C)(C)C)n1`, the half-inhibitory concentration (IC50) was under 1000 nM.

Molecule `Cc1ccc(C(N)=O)cc1Nc1nc(N[C@H]2CCNC2)nc(N(C)CC2CCCCC2)n1` came in with an IC50 of under 1000 nM.

`Cc1ccc(CO)cc1Nc1nc(N[C@H]2CCNC2)nc(N(C)CC(C)(C)C)n1` had an IC50 of under 1000 nM.

Turning to `CONC(=O)c1ccc(C)c(Nc2nc(N(C)CC(C)(C)C)cc(N3CCCN(C)CC3)n2)c1`, the IC50 was under 1000 nM.

As for `CCCCOc1nc(Nc2cc(C(N)=O)ccc2C)nc(NC2CCCC2)n1`, the IC50 was under 1000 nM.

The molecule `COCC(=O)N(C)CCCN(C)c1nc(NCC(C)c2ccccc2)nc(Nc2ccc3ncsc3c2)n1` (centres undefined) displayed an IC50 of under 10000 nM.

Molecule `Cc1ccc(C(N)=O)cc1Nc1nc(CCC(C)C)nc(N[C@H]2CCNC2)n1` had an IC50 of under 1000 nM.

Turning to `CNc1nc(Nc2cc(C(N)=O)ccc2C)nc(N[C@H]2CCNC2)n1`, the IC50 was under 1000 nM.

`Cc1ccc(C(N)=O)cc1Nc1nc(NCC2CCCC2)nc(N[C@H]2CCNC2)n1` returned an IC50 of under 1000 nM.

With `COCCCN1CCC(Nc2nc(Nc3cc(C(N)=O)ccc3C)nc(N(C)CC(C)C)n2)C1` (centres undefined), the IC50 was under 1000 nM.

For the molecule `Cc1ccc(C(N)=O)cc1Nc1nc(NCC(N)=O)nc(NCC(C)c2ccccc2)n1` (centres undefined), the IC50 was under 1000 nM.

The molecule `CNc1nc(Nc2ccc3ncsc3c2)nc(N[C@@H](C)C2CCCCC2)n1` had an IC50 of under 10000 nM.

Consider `Cc1ccc(C(=O)NCC(F)(F)F)cc1Nc1nc(N[C@H]2CCNC2)nc(N(C)CC(C)C)n1`, for which the IC50 was under 1000 nM.

Turning to `Cc1ccc(C(N)=O)cc1Nc1nc(N[C@H]2CCNC2)cc(N(C)CC(C)(C)C)n1`, the IC50 was under 1000 nM.

For `Cc1ccc(C(N)=O)cc1Oc1nc(N[C@@H]2CCNC2)nc(N(C)CC(C)(C)C)n1`, the IC50 is under 30000 nM.

For `CNC(=O)c1ccc(C)c(Nc2nc(N[C@H]3CCNC3)nc(N(C)CC(C)C)n2)c1`, the half-maximal inhibitory concentration (IC50) is under 1000 nM.

In turn, `Cc1ccc(C(N)=O)cc1Nc1nc(N[C@H]2CCN(c3ccccc3N)C2)nc(N(C)CC(C)(C)C)n1` yielded an IC50 of under 1000 nM.

`CCONC(=O)c1ccc(C)c(Nc2cc(N(C)CC(C)(C)C)nc(N3CCCN(C)CC3)n2)c1` yielded an IC50 of under 1000 nM.

Take `Cc1ccc(C(N)=O)cc1Nc1nc(NCC2CCC3CC2C3(C)C)nc(NC2CCNC2)n1` (centres undefined): the IC50 is under 1000 nM.

In turn, `CCOC(=O)Nc1ccc(C)c(Nc2nc(N[C@H]3CCNC3)nc(N(C)CC(C)(C)C)n2)c1` had an IC50 of under 1000 nM.

Take `Cc1ccc(C(N)=O)cc1Nc1nc(N[C@H]2CCN(Cc3ccc(C(C)C)cc3)C2)nc(N(C)CC(C)C)n1`: the IC50 is under 1000 nM.

Take `CCONC(=O)c1ccc(C)c(Nc2nc(NC3CCS(=O)(=O)C3)nc(N(C)CC(C)(C)C)n2)c1` (centres undefined): the IC50 was under 1000 nM.

`CC1(C)C2CCC(CNc3nc(N)nc(Nc4ccc(S(=O)(=O)N(C=O)c5ncccn5)cc4)n3)C1C2` (centres undefined): the IC50 is under 10000 nM.

Molecule `CNC(=O)c1ccc(C)c(Nc2nc(NC3CNC3)nc(N(C)CC(C)(C)C)n2)c1` gave an IC50 of under 1000 nM.

As to `CC(C)CN(C)c1nc(Nc2cc(C(N)=O)ccc2C(F)(F)F)nc(N[C@H]2CCNC2)n1`, the half-maximal inhibitory concentration (IC50) was under 1000 nM.

Molecule `CC1(C)[C@H]2CC[C@H](CNc3nc(Nc4ccc5ncsc5c4)nc(N4CCNCC4)n3)[C@@H]1C2` displayed an IC50 of under 10000 nM.

As for `CCNC(=O)N1CC2CC1CN2c1nc(NCC(C)c2ccccc2)nc(Nc2ccc3ncsc3c2)n1` (centres undefined), the IC50 is under 10000 nM.

Turning to `CC(=O)NCc1ccc(C)c(Nc2nc(N[C@H]3CCNC3)nc(N(C)CC(C)(C)C)n2)c1`, the IC50 is under 1000 nM.
